Assay results from patent publication US20090221603A1, “HETEROCYCLIC AMIDE DERIVATIVES AS CALCIUM CHANNEL BLOCKERS” (priority 2005, published 2009).
Read-outs that look alike come from different tables or passages of the source.

Biological target: T1, rat brain N-type calcium channel subunits (α1B+α2δ+β1b cDNA subunits) (Rattus norvegicus, UniProt Q02294)
T1 construct: expressed in transfected cells; host or cells: HEK 293 (stably, alternatively transiently, transfected)
Assay: N-type calcium channel block, whole cell patch clamp in HEK 293 cells
Assay type: cell-based
Conditions: holding potential −80 mV to +10 mV
Method: A. Transformation of HEK Cells: • N-type calcium channel blocking activity was assayed in human embryonic kidney cells, HEK 293, stably transfected with the rat brain N-type calcium channel subunits (α1B+α2δ+β1b cDNA subunits). Alternatively, N-type calcium channels (α1B+α2δ+β1b cDNA subunits), L-type channels (α1C+α2δ+β1b cDNA subunits) and P/Q-type channels (α1A+α2δ+β1b cDNA subunits) were transiently expressed in HEK 293 cells. Briefly, cells were cultured in Dulbecco's modified eagle medium (DMEM) supplemented with 10% fetal bovine serum, 200 U/ml penicillin and 0.2 mg/ml streptomycin at 37° C. with 5% CO2. At 85% confluency cells were split with 0.25% trypsin/1 mM EDTA and plated at 10% confluency on glass coverslips. At 12 hours the medium was replaced and the cells transiently transfected using a standard calcium phosphate protocol and the appropriate calcium channel cDNA's. Fresh DMEM was supplied and the cells transferred to 28° C./5% CO2. Cells were incubated for 1 to 2 days prior to whole cell recording.
B. Measurement of Inhibition
Whole cell patch clamp experiments were performed using an Axopatch 200B amplifier (Axon Instruments, Burlingame, Calif.) linked to a personal computer equipped with pCLAMP software. The external and internal recording solutions contained, respectively, 5 mM BaCl2, 10 mM MgCl2, 10 mM HEPES, 40 mM TEACl, 10 mM glucose, 87.5 mM CsCl (pH 7.2) and 108 mM CsMS, 4 mM MgCl2, 9 mM EGTA, 9 mM HEPES (pH 7.2). Currents were typically elicited from a holding potential of −80 mV to +10 mV using Clampex software (Axon Instruments). Typically, currents were first elicited with low frequency stimulation (0.067 Hz) and allowed to stabilize prior to application of the compounds. The compounds were then applied during the low frequency pulse trains for two to three minutes to assess tonic block, and subsequently the pulse frequency was increased to 0.2 Hz to assess frequency dependent block. Data were analyzed using Clampfit (Axon Instruments) and SigmaPlot 4.0 (Jandel Scientific).

[1] = low frequency stimulation 0.067 Hz (tonic block), read-out: IC50 @ 0.067 Hz
[2] = pulse frequency 0.2 Hz (frequency dependent block), read-out: IC50 @ 0.2 Hz

T1 sequence (Q02294 whole entry): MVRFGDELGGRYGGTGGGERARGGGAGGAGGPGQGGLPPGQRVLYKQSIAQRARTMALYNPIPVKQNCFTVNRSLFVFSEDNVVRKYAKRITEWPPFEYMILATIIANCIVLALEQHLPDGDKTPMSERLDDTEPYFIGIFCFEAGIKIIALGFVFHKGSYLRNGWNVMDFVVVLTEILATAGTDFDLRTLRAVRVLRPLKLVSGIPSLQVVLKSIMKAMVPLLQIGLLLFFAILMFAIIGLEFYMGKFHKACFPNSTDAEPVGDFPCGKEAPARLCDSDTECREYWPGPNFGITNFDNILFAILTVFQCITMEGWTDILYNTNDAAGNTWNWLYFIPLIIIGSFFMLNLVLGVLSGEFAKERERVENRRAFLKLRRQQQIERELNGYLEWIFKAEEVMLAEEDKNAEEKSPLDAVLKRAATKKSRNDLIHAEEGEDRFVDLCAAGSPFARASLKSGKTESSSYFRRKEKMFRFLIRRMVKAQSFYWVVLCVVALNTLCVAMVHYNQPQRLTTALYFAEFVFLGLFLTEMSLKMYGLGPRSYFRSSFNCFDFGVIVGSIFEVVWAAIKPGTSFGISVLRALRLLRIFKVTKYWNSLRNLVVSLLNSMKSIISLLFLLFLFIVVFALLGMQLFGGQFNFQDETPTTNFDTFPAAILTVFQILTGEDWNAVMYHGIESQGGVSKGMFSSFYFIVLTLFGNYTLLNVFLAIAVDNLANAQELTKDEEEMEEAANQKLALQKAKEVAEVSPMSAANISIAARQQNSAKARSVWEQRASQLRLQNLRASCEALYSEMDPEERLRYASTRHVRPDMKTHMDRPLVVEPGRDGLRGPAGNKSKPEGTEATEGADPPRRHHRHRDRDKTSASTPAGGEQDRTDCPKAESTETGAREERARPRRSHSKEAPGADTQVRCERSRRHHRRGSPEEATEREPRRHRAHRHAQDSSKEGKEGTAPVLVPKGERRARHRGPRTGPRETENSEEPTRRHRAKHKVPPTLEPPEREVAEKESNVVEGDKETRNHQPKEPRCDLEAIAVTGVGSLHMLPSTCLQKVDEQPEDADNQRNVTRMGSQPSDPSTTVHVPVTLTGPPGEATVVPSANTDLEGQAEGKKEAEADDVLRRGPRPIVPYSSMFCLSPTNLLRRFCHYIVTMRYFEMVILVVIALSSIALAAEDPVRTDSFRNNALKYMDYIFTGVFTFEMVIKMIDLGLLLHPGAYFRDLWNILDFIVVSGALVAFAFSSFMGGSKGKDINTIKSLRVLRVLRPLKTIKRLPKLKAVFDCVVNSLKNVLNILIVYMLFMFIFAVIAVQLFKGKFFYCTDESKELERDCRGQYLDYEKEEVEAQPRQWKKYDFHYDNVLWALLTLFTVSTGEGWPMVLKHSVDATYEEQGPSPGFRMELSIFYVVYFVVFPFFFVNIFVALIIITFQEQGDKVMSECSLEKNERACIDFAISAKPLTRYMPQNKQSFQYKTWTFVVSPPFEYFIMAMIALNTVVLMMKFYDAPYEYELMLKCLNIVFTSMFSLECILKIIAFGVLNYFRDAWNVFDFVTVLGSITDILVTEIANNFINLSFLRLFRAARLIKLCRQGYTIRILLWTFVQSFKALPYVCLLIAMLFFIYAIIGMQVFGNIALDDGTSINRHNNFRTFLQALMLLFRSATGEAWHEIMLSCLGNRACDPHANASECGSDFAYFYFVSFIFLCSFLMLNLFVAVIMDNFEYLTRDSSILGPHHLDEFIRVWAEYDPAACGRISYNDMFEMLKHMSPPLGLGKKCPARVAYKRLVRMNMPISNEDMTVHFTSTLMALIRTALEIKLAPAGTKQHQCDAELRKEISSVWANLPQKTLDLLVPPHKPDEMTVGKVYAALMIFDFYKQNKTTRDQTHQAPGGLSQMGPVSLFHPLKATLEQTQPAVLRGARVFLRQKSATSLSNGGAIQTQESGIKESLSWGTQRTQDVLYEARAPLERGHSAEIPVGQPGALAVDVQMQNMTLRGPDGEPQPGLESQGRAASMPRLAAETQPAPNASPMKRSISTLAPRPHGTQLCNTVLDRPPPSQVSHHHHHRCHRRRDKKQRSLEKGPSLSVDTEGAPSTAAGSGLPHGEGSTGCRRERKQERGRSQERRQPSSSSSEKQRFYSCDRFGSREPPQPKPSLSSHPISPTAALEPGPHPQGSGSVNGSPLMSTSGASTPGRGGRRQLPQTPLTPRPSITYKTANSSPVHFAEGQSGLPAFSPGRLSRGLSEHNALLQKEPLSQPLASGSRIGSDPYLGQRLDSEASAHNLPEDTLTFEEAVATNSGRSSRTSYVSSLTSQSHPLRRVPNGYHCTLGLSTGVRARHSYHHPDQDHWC
T1 sequence (P54290 25-944 partner limits assumed): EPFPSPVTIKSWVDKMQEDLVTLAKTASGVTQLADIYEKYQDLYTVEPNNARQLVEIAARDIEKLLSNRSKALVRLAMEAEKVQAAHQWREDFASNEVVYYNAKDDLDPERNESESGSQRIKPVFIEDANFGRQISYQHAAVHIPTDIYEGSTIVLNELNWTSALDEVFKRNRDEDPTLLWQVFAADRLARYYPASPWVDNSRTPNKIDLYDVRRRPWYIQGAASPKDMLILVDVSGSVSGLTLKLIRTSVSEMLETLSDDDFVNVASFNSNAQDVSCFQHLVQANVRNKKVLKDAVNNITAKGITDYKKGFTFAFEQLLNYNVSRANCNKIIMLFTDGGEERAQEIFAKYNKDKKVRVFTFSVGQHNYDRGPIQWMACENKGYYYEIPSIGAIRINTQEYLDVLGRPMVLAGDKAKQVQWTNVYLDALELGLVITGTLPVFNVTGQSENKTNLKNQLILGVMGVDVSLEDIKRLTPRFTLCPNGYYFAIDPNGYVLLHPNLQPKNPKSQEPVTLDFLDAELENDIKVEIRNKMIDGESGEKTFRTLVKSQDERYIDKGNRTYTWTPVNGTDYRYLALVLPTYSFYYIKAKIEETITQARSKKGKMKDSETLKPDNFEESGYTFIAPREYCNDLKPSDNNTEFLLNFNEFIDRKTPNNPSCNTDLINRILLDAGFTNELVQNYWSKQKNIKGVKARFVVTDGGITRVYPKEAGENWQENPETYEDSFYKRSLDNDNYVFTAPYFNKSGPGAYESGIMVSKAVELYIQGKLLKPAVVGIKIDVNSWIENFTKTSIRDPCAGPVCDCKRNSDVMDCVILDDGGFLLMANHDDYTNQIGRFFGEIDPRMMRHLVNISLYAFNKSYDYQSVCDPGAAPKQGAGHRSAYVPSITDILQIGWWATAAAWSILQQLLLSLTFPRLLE
T1 sequence (P54290 945-1091 partner limits assumed): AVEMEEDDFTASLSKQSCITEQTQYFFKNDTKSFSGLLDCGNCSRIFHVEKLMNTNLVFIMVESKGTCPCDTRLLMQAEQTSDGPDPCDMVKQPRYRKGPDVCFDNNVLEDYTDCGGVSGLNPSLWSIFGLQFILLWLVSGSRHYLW
T1 sequence (P54283 whole entry partner): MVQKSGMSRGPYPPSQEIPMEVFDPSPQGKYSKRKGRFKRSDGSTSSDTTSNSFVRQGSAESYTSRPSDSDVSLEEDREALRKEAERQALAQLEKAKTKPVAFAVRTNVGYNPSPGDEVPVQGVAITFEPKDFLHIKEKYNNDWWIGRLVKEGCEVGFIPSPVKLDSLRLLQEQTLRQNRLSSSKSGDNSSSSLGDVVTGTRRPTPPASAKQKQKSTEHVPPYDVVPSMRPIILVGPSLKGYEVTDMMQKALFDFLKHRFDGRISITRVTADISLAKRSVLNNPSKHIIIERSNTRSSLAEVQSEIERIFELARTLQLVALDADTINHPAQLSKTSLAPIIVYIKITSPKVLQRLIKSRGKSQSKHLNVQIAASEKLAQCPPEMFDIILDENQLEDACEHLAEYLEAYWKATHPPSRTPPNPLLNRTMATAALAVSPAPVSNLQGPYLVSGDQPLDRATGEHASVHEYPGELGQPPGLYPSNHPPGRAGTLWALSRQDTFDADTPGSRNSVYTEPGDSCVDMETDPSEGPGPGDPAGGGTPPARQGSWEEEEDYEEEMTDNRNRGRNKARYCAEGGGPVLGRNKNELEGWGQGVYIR

Row | SMILES | IC50 [1] | IC50 [2]
1 | CN(CC(=O)N1CCN(C(c2ccccc2)c2ccc(Cl)cc2)CC1)C(c1ccccc1)c1ccccc1 (stereo not shown) [Compound 3, 2-benzhydryl(methyl)amino-1-(4-((4-chlorophenyl)(phenyl)methyl)piperazin-1-yl)ethanone] | 2450 nM | 850 nM
2 | CN(CC(=O)N1CCN(C(c2ccccc2)c2cccc(Cl)c2)CC1)C(c1ccccc1)c1ccccc1 (stereo not shown) [Compound 4, 2-benzhydryl(methyl)amino-1-(4-((3-chlorophenyl)(phenyl)methyl)piperazin-1-yl)ethanone] | 1240 nM | 840 nM
3 | CN(CC(=O)N1CCN(C(c2ccccc2)c2ccccc2Cl)CC1)C(c1ccccc1)c1ccccc1 (stereo not shown) [Compound 5, 2-benzhydryl(methyl)amino-1-(4-((2-chlorophenyl)(phenyl)methyl)piperazin-1-yl)ethanone] | > 4670 nM | > 2940 nM
4 | CN(CC(=O)N1CCN(C(c2ccccc2)c2cccc(C(F)(F)F)c2)CC1)C(c1ccccc1)c1ccccc1 (stereo not shown) [Compound 7] | 1460 nM | 670 nM
5 | CN1CCC(CN2CCN(C(=O)CNC(c3ccccc3)c3ccccc3)CC2)CC1 [Compound 9] | 4000 nM | 2500 nM
6 | CN1CCC(C(=O)N2CCN(C(=O)CNC(c3ccccc3)c3ccccc3)CC2)CC1 [Compound 10, 2-benzhydrylamino-1-(4-(1-methylpiperidine-4-carbonyl)piperazin-1-yl)ethanone] | > 4970 nM | > 2640 nM
7 | CN1CCC(C(=O)N2CCN(C(=O)CN(C)C(c3ccccc3)c3ccccc3)CC2)CC1 [Compound 11, 2-benzhydryl(methyl)amino-1-(4-(1-methylpiperidine-4-carbonyl)piperazin-1-yl)ethanone] | > 11800 nM | 7920 nM
8 | CN1CCC(CN2CCN(C(=O)CN(C)C(c3ccccc3)c3ccccc3)CC2)CC1 [Compound 12] | 7400 nM | 2070 nM
9 | CN1CCC(C(c2ccccc2)N2CCN(C(=O)CN(C)C(c3ccccc3)c3ccccc3)CC2)CC1 (stereo not shown) [Compound 14, 2-benzhydryl(methyl)amino-1-(4-((1-methylpiperidin-4-yl)(phenyl)methyl)piperazin-1-yl)ethanone] | 550 nM | 440 nM
10 | O=C(CNc1ccccc1)N1CCN(C(c2ccccc2)c2ccccc2)CC1 [Compound 16] | 4300 nM | 800 nM
11 | O=C(CNc1ccc(Cl)cc1)N1CCN(C(c2ccccc2)c2ccccc2)CC1 [Compound 17, 1-(4-benzhydrylpiperazin-1-yl)-2-(4-chlorophenylamino)ethanone] | > 7600 nM | > 4600 nM
12 | O=C(CNc1cccc(Cl)c1)N1CCN(C(c2ccccc2)c2ccccc2)CC1 [Compound 18, 1-(4-benzhydrylpiperazin-1-yl)-2-(3-chlorophenylamino)ethanone] | 1290 nM | 1030 nM
13 | O=C(CNc1cc(F)cc(F)c1)N1CCN(C(c2ccccc2)c2ccccc2)CC1 [Compound 21, 1-(4-benzhydrylpiperazin-1-yl)-2-(3,5-difluorophenylamino)ethanone] | 1400 nM | 700 nM
14 | O=C(CNc1cc(Cl)cc(Cl)c1)N1CCN(C(c2ccccc2)c2ccccc2)CC1 [Compound 22, 1-(4-benzhydrylpiperazin-1-yl)-2-(3,5-dichlorophenylamino)ethanone] | 2400 nM | 980 nM
15 | COc1cc(NCC(=O)N2CCN(C(c3ccccc3)c3ccccc3)CC2)cc(OC)c1OC [Compound 25, 1-(4-benzhydrylpiperazin-1-yl)-2-(3,4,5-trimethoxyphenylamino) ethanone] | 2300 nM | 1500 nM
16 | CC1CN(CC2CCOCC2)CC(C)N1C(=O)COC(c1ccccc1)c1ccccc1 (stereo not shown) [Compound 32, 2-(benzhydryloxy)-1-(2,6-dimethyl-4-((tetrahydro-2H-pyran-4-yl)methyl)piperazin-1-yl)ethanone] | 1000 nM | 640 nM
17 | CC1CN(CC2CCOCC2)CC(C)N1C(=O)C[S+]([O-])C(c1ccccc1)c1ccccc1 (stereo not shown) [Compound 34, 2-(benzhydrylsulfinyl)-1-(2,6-dimethyl-4-((tetrahydro-2H-pyran-4-yl)methyl)piperazin-1-yl)ethanone] | > 6600 nM | > 4700 nM
18 | O=C(COC(c1ccccc1)c1ccccc1)N1CCN(CC2CCOCC2)CC1 [Compound 35, 2-(benzhydryloxy)-1-(4-((tetrahydro-2H-pyran-4-yl)methyl)piperazin-1-yl)ethanone] | 8300 nM | 1300 nM
19 | O=C(CNC(c1ccccc1)c1ccccc1)N1CCN(CC2CCOCC2)CC1 [Compound 38, 2-(benzhydrylamino)-1-(4-((tetrahydro-2H-pyran-4-yl)methyl)piperazin-1-yl)ethanone] | 9530 nM | 4910 nM
20 | Cc1cc(CN2CCN(C(=O)COC(c3ccccc3)c3ccccc3)CC2)cc(Cl)n1 [Compound 40, 2-(benzhydryloxy)-1-(4-((2-chloro-6-methylpyridin-4-yl)methyl)piperazin-1-yl)ethanone] | 1200 nM | 740 nM
21 | CN1CCC(CN2CCN(C(=O)COC(c3ccccc3)c3ccccc3)CC2)CC1 [Compound 41, 2-(benzhydryloxy)-1-(4-((1-methylpiperidin-4-yl)methyl)piperazin-1-yl)ethanone] | > 4800 nM | > 3200 nM
22 | CN1CCC(CN2CCN(C(=O)C[S+]([O-])C(c3ccccc3)c3ccccc3)CC2)CC1 (stereo not shown) [Compound 43, 2-(benzhydrylsulfinyl)-1-(4-((1-methylpiperidin-4-yl)methyl)piperazin-1-yl)ethanone] | 4260 nM | 1340 nM
23 | O=C(CSC(c1ccccc1)c1ccccc1)N1CCN(C(c2ccccc2)c2ccccc2)CC1 [Compound 44, 1-(4-benzhydrylpiperazin-1-yl)-2-(benzhydrylthio)ethanone] | 600 nM | 270 nM
24 | O=C(C[S+]([O-])C(c1ccccc1)c1ccccc1)N1CCN(C(c2ccccc2)c2ccccc2)CC1 (stereo not shown) [Compound 45, 1-(4-benzhydrylpiperazin-1-yl)-2-(benzhydrylsulfinyl)ethanone] | 290 nM | 200 nM
25 | O=C(CSC(c1ccccc1)c1ccccc1)N1CCN(C(c2ccc(F)cc2)c2ccc(F)cc2)CC1 [Compound 47, 2-(benzhydrylthio)-1-(4-(bis(4-fluorophenyl)methyl)piperazin-1-yl)ethanone] | 4920 nM | 3230 nM
26 | O=C(COC(c1ccccc1)c1ccccc1)N1CCN(C(c2ccccc2)c2ccccc2)C(CO)C1 (stereo not shown) [Compound 50, 2-(benzhydryloxy)-1-(4-benzhydryl-3-hydroxymethylpiperazin-1-yl)ethanone] | 400 nM | 230 nM
27 | O=C(C[S+]([O-])C(c1ccccc1)c1ccccc1)N1CCN(C(c2ccccc2)c2ccccc2)C(CO)C1 (stereo not shown) [Compound 52, 1-(4-benzhydryl-3-hydroxymethylpiperazin-1-yl)-2-(benzhydrylsulfinyl)ethanone] | 1230 nM | 970 nM
28 | COCC1CN(C(=O)COC(c2ccccc2)c2ccccc2)CCN1C(c1ccccc1)c1ccccc1 (stereo not shown) [Compound 54, 2-(benzhydryloxy)-1-(4-benzhydryl-3-methoxymethylpiperazin-1-yl)ethanone] | 330 nM | 210 nM
29 | COCC1CN(C(=O)C[S+]([O-])C(c2ccccc2)c2ccccc2)CCN1C(c1ccccc1)c1ccccc1 (stereo not shown) [Compound 56, 1-(4-benzhydryl-3-methoxymethylpiperazin-1-yl)-2-(benzhydrylsulfinyl)ethanone] | 180 nM | 130 nM
